Data reported in the SangsterLogP compilation.

Assay: method code SF, from Hansch, C. & Leo, A. (1987). Log P database [Dataset]. Pomona College Medicinal Chemistry Project.
Conditions: not given

Row | SMILES | logP
1 | CCCCSc1ccccc1OC(=O)NC | 2.98
2 | CN(C)C(=O)Cc1ccsc1 | 0.65
3 | CCNC(=O)CBr | 0.34
4 | Cc1ccc2c(=O)[nH]c(=O)[nH]c2c1 | 0.55
5 | FC(F)(F)Oc1ccccc1 | 3.17
6 | Brc1ccccn1 | 1.42
7 | Cc1ccc(Cl)cc1C | 3.82
8 | CC(C)c1ccccc1OC(=O)N(C)C | 2.65
9 | N#Cc1cccc(C(N)=O)c1 | 0.52
10 | CCCOc1cn[nH]c1 | 1.42
11 | CC(=O)NCCC(=O)N(C)c1ccc(S(=O)(=O)N(C)C)cc1 | -0.35
12 | COc1ccc2[nH]c(CCCc3nc4cc(OC)ccc4[nH]3)nc2c1 | 1.75
13 | O=S1(=O)NC(c2cccs2)=Nc2ccccc21 | 1.68
14 | Nc1ccc([N+](=O)[O-])cc1N | 0.88
15 | O=C(CNC(=O)c1ccccc1)Oc1ccc(F)cc1 | 2.46
16 | COc1cc(C=O)ccc1OCCOC(=O)c1ccccc1Cl | 3.21
17 | CCC(=O)c1ccncc1 | 0.77
18 | COc1ccc(Cn2ccnc2C=Cc2ccc([N+](=O)[O-])o2)cc1 | 1.37
19 | C=C(F)F | 1.24
20 | O=S(=O)(Nc1cn[nH]c1)c1ccccc1 | 0.87
21 | Oc1ccccc1/C=N/c1ccccc1 | 3.09
22 | CCCCNP(=O)(OC)Oc1cc(Cl)c(Cl)cc1Cl (stereo not drawn) | 4.18
23 | c1ccc2c(c1)Cc1ccccc1C2 | 4.25

Row | SMILES | logP
24 | CCCCC1OC(=O)c2cc(N)ccc21 (stereo not drawn) | 2.86
25 | O=C(CNC(=O)c1ccccc1)Oc1cccc([N+](=O)[O-])c1 | 2.46
26 | NC(=O)NCc1ccccc1 | 0.73
27 | COc1ccc2c(c1)N(CCCN(C)C)c1ccccc1S2 | 4.46
28 | CCOC(=O)C(=Cc1ccccc1)C(=O)OCC | 3.13
29 | C/C=C/C | 2.31
30 | CCCOC=O | 0.83
31 | O=S1(=O)Nc2ccccc2N1 | 1.12
32 | CCNc1nc(NC(C)C)nc(SC)n1 | 2.98
33 | COc1ccc(C=C(C(C)=O)C(C)=O)c(OC)c1 | 1.88
34 | CC1(C)OC2CC3C4CC(F)C5=CC(=O)C(Cl)=CC5(C)C4(F)C(O)CC3(C)C2(C(=O)CO)O1 (stereo not drawn) | 2.99
35 | COc1cc2c(c(OC)c1OC)-c1ccc(O)c(=O)cc1[C@@H](N)CC2 | 0.26
36 | CCC(=O)CCCN(C)c1ccc(S(=O)(=O)N(C)C)cc1 | 0.71
37 | CCOC(=O)CON=Cc1ccc(OCC(=O)OCC)c(OC)c1 | 1.87
38 | O=C1OC(c2ccccc2)c2ccccc21 (stereo not drawn) | 2.64
39 | Clc1ccc2[nH]c(CCCc3nc4cc(Cl)ccc4[nH]3)nc2c1 | 1.88
40 | Cc1ccc2[nH]c(CCCCCCc3nc4cc(C)ccc4[nH]3)nc2c1 | 1.76
41 | CCCCC[N+](=O)[O-] | 2.01
42 | O=C(O)COc1ccc(F)c(I)c1 | 2.42
43 | OCC(O)COc1ccccc1 (stereo not drawn) | 0.7
44 | COc1cccc2cccnc12 | 1.84
45 | N#CN=[N+]([O-])c1ccc(C(F)(F)F)cc1 | 2.47
46 | CSc1ncnc2c1ncn2[C@@H]1O[C@H](CO)[C@@H](O)[C@@H]1O | 0.09

Row | SMILES | logP
47 | O=C(CO)NCc1ccccc1 | 0.55
48 | O=C1C[C@@H]2OCC=C3CN4CC[C@]56c7ccccc7N1[C@H]5[C@H]2[C@H]3C[C@H]46 | 1.93
49 | CCOC(=O)C(=O)c1cccs1 | 1.77
50 | CCCc1ccncc1 | 2.1
51 | Clc1ccc2[nH]c(CCCCc3nc4cc(Cl)ccc4[nH]3)nc2c1 | 1.85
52 | C/N=C(\NC)NC#N | -0.4
53 | O=C(c1ccccc1)C(F)(F)F | 2.15
54 | CCCCNC | 1.33
55 | CC(=O)Nc1cccc(OC(=O)CNC(=O)c2ccccc2)c1 | 1.7
56 | CC(=NNC(=S)N(C)C)c1cc(C)ccc1O | 2.26
57 | O=c1[nH]nnc2ccccc12 | 0.83
58 | Cc1ccc(OC(=O)CNC(=O)c2ccccc2)cc1 | 2.83
59 | OC(O)(C(F)(F)F)C(F)(F)F | 1.46
60 | CCCCN(C)N=Nc1cn([C@@H]2O[C@H](CO)[C@@H](O)[C@H]2O)c(=O)n(C)c1=O | -0.45
61 | N#CSc1ccccc1 | 2.54
62 | CC(C)c1ccccc1OCC(=O)O | 2.84
63 | O=[N+]([O-])c1ccc(C=Cc2nccn2Cc2ccncc2)o1 | 1.67
64 | CCOC(=O)C(=Cc1cccc(F)c1)C(=O)OCC | 3.19
65 | COc1cc(OC)cc(OC(=O)CNC(=O)c2ccccc2)c1 | 2.69
66 | CCC(C)C(=O)Nc1ccc(Cl)c(Cl)c1 (stereo not drawn) | 4.11
67 | Cc1cccc(NC(=O)c2ccccc2)c1 | 2.75
68 | CCOC(=O)C(=Cc1cccc(OC)c1OC)C(C)=O | 2.21
69 | c1ccc2c(c1)nnc1ccccc12 | 2.71

Row | SMILES | logP
70 | N#C/C(=C\c1ccccc1)C(N)=O | 1.5
71 | CC(C)(C)C(=O)Nc1ccc(Cl)c(Cl)c1 | 3.88
72 | CCC1OC(=O)C(C)C(OC2CC(C)(OC)C(O)C(C)O2)C(C)C(OC2OC(C)CC(N(C)C)C2O)C2(C)CC(C)C3(OC(=O)OC(C3C)C1(C)O)O2 (stereo not drawn) | 3.11
73 | CCCOCCC(=O)N(C)c1ccc(S(=O)(=O)N(C)C)cc1 | 1.26
74 | CCOc1cn[nH]c1 | 0.8
75 | O=[N+]([O-])c1ccc2[nH]c(CCCCc3nc4cc([N+](=O)[O-])ccc4[nH]3)nc2c1 | 2.45
76 | C=C(CC(Cl)(Cl)Cl)c1ccccc1 | 4.56
77 | O=C(O)COc1ccccc1O | 0.85
78 | CCOP(=O)(N=C1SCC(C)S1)OCC (stereo not drawn) | 1.04
79 | Cc1cccc(C=C(C(N)=O)C(N)=O)c1 | 0.4
80 | CCc1ccccc1OC(C)=O | 2.42
81 | CSc1cccc(NC(C)=O)c1 | 2.14
82 | Cc1cccc(OC(=O)CNC(=O)c2ccccc2)c1 | 2.72
83 | CCC(C)C1=Nc2ccc(Cl)cc2S(=O)(=O)N1 (stereo not drawn) | 2.47
84 | CC(=O)Oc1ccc([N+](=O)[O-])cc1 | 1.5
85 | c1nnn[nH]1 | -0.6
86 | C=CC(N)=O | -0.67
87 | O=C1CCC2CCCCC2C1 (stereo not drawn) | 1.97
88 | CC1=Nc2c(Cl)cccc2S(=O)(=O)N1 | 0.72
89 | ClC(Cl)(Cl)Sc1ccccc1 | 3.78

Same assay, conditions: pH 1.0

Row | SMILES | logD
90 | O=C(O)CSc1ccccc1 | 1.88
91 | COC(=O)c1ccccc1C(=O)O | 1.13
92 | O=C(O)c1ccccc1S | 2.39
93 | Oc1cc(-c2ccccc2)on1 | 2.55

Same assay, conditions: pH 2.0

Row | SMILES | logD
94 | O=C1CC(=O)NC(=O)N1 | -1.41

Same assay, conditions: pH 6.4

Row | SMILES | logD
95 | Oc1ccc(Nc2ccccc2)cc1 | 2.82

Same assay, conditions: pH 7.0

Row | SMILES | logD
96 | CN(C)c1ccc(S(N)(=O)=O)cc1 | 0.76
97 | O=Cc1cccc([N+](=O)[O-])c1 | 1.47
98 | CCCOC(=O)c1cccnc1 | 1.94

Same assay, conditions: pH 7.4

Row | SMILES | logD
99 | Nc1nncs1 | -0.57
100 | CCN(CC)c1c(C)n(CC)c(=O)n(-c2ccccc2)c1=O | 2.2
101 | Cc1c(N(C)C)c(=O)n(C)c(=O)n1-c1ccc(Cl)cc1 | 2.32

Same assay, conditions: pH 9.2

Row | SMILES | logD
102 | CC(C)C#CN(C)C(C)C | 2.29

Same assay, conditions: pH 10.8

Row | SMILES | logD
103 | CNC(=S)NCCSCc1nc[nH]c1C | 0.59

Same assay, conditions: pH 11.0

Row | SMILES | logD
104 | CCN(CC)CCc1cccnc1 | 1.23
105 | c1cncc(CN2CCOCC2)c1 | 0.04

Same assay, conditions: pH 12.0

Row | SMILES | logD
106 | CCCC1CC(C(=O)NC(C(C)Cl)C2OC(SC)C(O)C(O)C2O)N(CC)C1 (stereo not drawn) | 2.51

Same assay, conditions: pH 13.0

Row | SMILES | logD
107 | COc1cccc(Cc2cnc(N)nc2N)c1OC | 1.62
108 | CC1(C)N=C(N)N=C(N)N1c1ccc(C(F)(F)F)cc1 | 1.22
109 | CCCCOc1cccc(N2C(N)=NC(N)=NC2(C)C)c1 | 2.03
110 | COC(OC)(OC)c1ccccc1 | 2.27
111 | CNCc1ccccc1 | 1.52
112 | CNC1(c2ccccc2Cl)CCCCC1=O (stereo not drawn) | 2.18
113 | CC(=O)c1ccc(N2C(N)=NC(N)=NC2(C)C)cc1 | -0.04
